According to US8124381B2, “Process and materials for production of glucosamine and N-acetylglucosamine” (Arkion Life Sciences, priority 2002, dated 2012):
Substitutions are numbered along the chain they refer to. In names and notes the source's numbering stands.

Tests used:
[1] = target: T1, E. coli glucosamine synthase GlmS*54 (Escherichia coli, UniProt P17169, A39T/G472S/R250C); assay: Effects of phosphorylated sugars on glucosamine synthase; assay type: biochemical
T1 construct: made in house; host or cells: E. coli 7107-18 (printed '7017-18'; T7-glmS*54 integrated at galK) and strains derived from it; crude extract
Method: (§1) Glucosamine synthetase activity was examined in the presence of various phosphorylated sugars. Crude enzyme extracts was prepared from cells of 7017-18 grown in shake flasks for 24 hours with lactose induction.

[2] = target: E. coli glucosamine synthase GlmS*54, SEQ ID NO:6 (Ala39Thr, Arg250Cys, Gly472Ser) (Escherichia coli, UniProt P17169, A39T/G472S/R250C); assay: Effects of phosphorylated sugars on glucosamine synthase, crude extract of lactose-induced 7107-18 cells; assay type: biochemical; details: 10 mM or relatively high concentration
Method: as §1

[3] = system: E. coli strain 7107-18; assay: Effects of glucosamine and N-acetylglucosamine on growth and survival of E. coli 7107-18; assay type: cell-based, Escherichia coli
Method: As shown in Example 11, glucosamine is unstable at the regular pH range used for E. coli growth. […] The toxicity was attributed to at least partially to GlcN degradation products in media with a starting pH of 7.0. […] However, low pH levels are known to limit cell growth. Therefore, experiments were conducted in which 7107-18 was grown at pH 7.0, 6.0, 5.5, 5.0 and 4.7. The main objectives were to study cell growth at these lower pHs (with GlcN), and to see if the previously observed cell death caused by GlcN degradation could be reduced at lower pHs.
Cells were inoculated into M9A-glucose (40 g/L) containing 62 g/L N-acetyl glucosamine.

[4] = Degradation in hydrochloric acid at 90-100 C based on ammonia formation; assay type: physicochemical; details: 5% and 10% glucosamine hydrochloride, 12% and 20% hydrochloric acid, 90 C, 1-24 hours
Method: Glucosamine degradation was examined at 90° C. and 100° C. using 5% and 10% glucosamine hydrochloride (w/w) with 12% and 20% hydrochloric acid by weight. Samples were incubated from 1-24 hours and assayed enzymatically for ammonia using glutamate dehydrogenase. […] Glucosamine degradation is based on ammonia formation.
N-acetylglucosamine was hydrolyzed to glucosamine at 90° C. using the hybridization oven. The reaction was carried out inside a screw capped glass tube. The 30% hydrochloric acid (30 g) was preincubated at 90° C. for 1 hour. After this 10 g solid N-acetylglucosamine was added, quickly dissolved, and a To sample taken. Samples were taken at 30-minute intervals over the next three hours. […] Samples were analyzed for ammonia enzymatically.

[5] = Glucosamine stability in cell-free M9A medium; assay type: physicochemical; details: for loss of glucosamine: 60 g l-1, cell-free M9A-glucose, 30 C, 52 hours; for glucosamine degradation: cell-free M9A + 40 g l-1 glucose
Method: Glucosamine stability was tested in cell-free M9A medium (14 g l^−1 K2HPO4, 16 g l^−1 KH2PO4, 1 g l^−1 Na3citrate.2H2O, 5 g l^−1 (NH4)2SO4, 1 mM MgSO4, 1 mM CaCl2, pH 7.0) supplemented with 40 g l^−1 glucose. Glucosamine was prepared as a 30% glucosamine-HCl concentrated solution and was added to final concentrations of 0, 4, 13, 26 and 42 g l^−1 (50 ml total in 250-ml flask). The pH of the medium was adjusted to pH 6.9. Flasks were placed on a shaker and agitated at about 225 rpm. Glucosamine levels and pH were monitored at 30° C. for about 24 hours. […] The degradation was only about 25% when the starting glucosamine concentration was 4 g l^−1. Glucosamine degradation was accompanied by a decline of pH in the medium. In the 42 g l^−1 glucosamine sample the pH in the medium was lowered by 0.7 units (from 6.9 to 6.2) after a 24-hr period, as compared to a pH change of only about 0.15 units in medium without glucosamine.
The breakdown of glucosamine (60 g l^−1) at four starting pH levels was monitored at 30° C. in cell-free M9A-glucose (40 g l^−1) for 52 hours. At each sampling time, the solutions were readjusted to their original pH. Each condition was run in triplicate. […] The loss of glucosamine was 68% at pH 7.0 as compared to 18% at pH 5.5.
To test the involvement of the aldehyde group, degradation was monitored in M9A medium containing 30 g l^−1 glucosamine with and without 40 g l^−1 glucose. If the aldehyde group is involved, the presence of glucose would affect the rate of glucosamine degradation/polymerization.

[6] = Stability of glucosamine in stored culture supernatant samples; assay type: physicochemical
Method: Shake flask culture samples were assayed by both the HPLC method and the colorimetric methods. The culture supernatants were obtained by centrifugation and filtration to remove particles, and stored at -20° C. until analysis. HPLC was calibrated using a single point 2500 ppm standard solution prepared in […] medium. After thawing, samples were immediately analyzed by HPLC. After remaining in the autosampler overnight, the samples were analyzed again. Agreement was very good between the two methods.

[7] = system: E. coli 7107-18
Method: Batches of M9A medium with 40 g l^−1 glucose and 20 g 1-1 GlcN were adjusted to five different pHs. One set of flasks was immediately inoculated with 7107-18 cells. Replicate flasks of the same media were incubated without cells for 10 hours, before inoculation. Seven times over 48 hours, flasks were sampled to measure pH, OD600, and GlcN concentration. At each sample point, the pH of the culture was readjusted back to the initial settings.
Glucosamine is vital for E. coli growth since it is a precursor for the synthesis of important cell wall components. E. coli is also capable of using Glucosamine and N-acetylglucosamine as the sole carbon source. The catabolism of the amino sugars requires a functional glucosamine deaminase encoded by the nagB gene, which was deleted in strain 7107-18. […] Experiments were carried out to investigate if glucosamine affects E. coli 7107-18 cell growth and survival in medium containing 40 g l^−1 glucose.

[8] = Glucosamine stability under acid/heat hydrolysis conditions; assay type: physicochemical; details: for glucosamine stability with heating: 10 g/l in M9A, 100 C
Method: In the first experiment N-acetylglucosamine (10 g/l in […] medium without glucose) was hydrolyzed at 100° C. with various levels of hydrochloric acid. In a parallel experiment, glucosamine was subjected to the same treatments to determine its stability under hydrolysis conditions. Conversion of N-acetylglucosamine to glucosamine was determined by monitoring the amount of glucosamine generated by the hydrolysis reaction. Glucosamine was determined by an HPLC method based on that described by Way et al. (Journal of Liquid Chromatography and Related Technologies, 23:2861, 2000). Some specific details of the HPLC method are given below: column: […] Both the amount of remaining N-acetylglucosamine and the amount of formed glucosamine were monitored. N-acetylglucosamine was measured by HPLC using a standard carbohydrate system. Some specific details are given below: column: […] Glucosamine was measured using the ion pair HPLC column as described above. […] At 100° C. conversion was complete by 2.5 hours. […] At lower temperatures, some hydrolysis was observed, but this was much slower. […] Acid hydrolysis of N-acetylglucosamine at 90° C. was performed. […] A series of 12-ml glass screw capped tubes with Teflon lined caps were employed. Each tube represented a separate time point (0, 15, 30, 45, 60, 90 minutes) and contained 2 ml of the N-acetylglucosamine/hydrochloric acid solution. Tubes were heated in a heating block equilibrated at 90° C. Tubes were removed at appropriate times and quick cooled in ice water. Appropriate dilutions were made in and samples analyzed by HPLC for glucosamine and N-acetylglucosamine. […] Kinetics of N-acetylglucosamine disappearance were essentially the same for all four solutions. Hydrolysis is very rapid at 90° C. […] No N-acetylglucosamine was detected at 60 or 90 minutes. After 1 hour at 90° C., N-acetylglucosamine was no longer detected even with 20% N-acetylglucosamine.

[9] = target: E. coli GlmS mutant GlmS*69 (Escherichia coli, UniProt P17169); assay: GlmS inhibition and Michaelis-Menten kinetics; assay type: biochemical; details: read-out: Km (fructose-6-P)
Method: (§2) Different glucosamine synthetase enzymes, including native B. subtillus GlmS, native E. coli GlmS and mutant E. coli GlmS, were studied in vitro. Cells of various E. coli strains were grown in the M9A medium, harvested, and frozen. Cells extracts were prepared and the glucosamine synthetases were characterized and compared.
(§3) Enzyme sensitivities to the reaction product glucosamine-6-P were examined. […] This figure highlights the dramatic difference between the wild type GlmS and these mutant GlmS strains.
(§4) The Mutants 2123-54 and the B. subtilis enzyme have higher Ki values (Table 6). Measured Ki constants for several of these mutants are 4 to 8 times the value for the native enzyme in strain 2123-12. From shake flask studies it is apparent that decreased sensitivity to glucosamine-6-P allows higher glucosamine levels to accumulate.
(§5) These values are slightly higher than those obtained with the native enzyme.

[10] = target: E. coli GlmS mutant GlmS*110 (Escherichia coli, UniProt P17169); assay: GlmS inhibition and Michaelis-Menten kinetics; assay type: biochemical; details: read-out: Km (fructose-6-P)
Method: as §2, §3, §4, §5

[11] = substrate: O=P(O)(O)OC[C@H]1OC(O)(CO)[C@@H](O)[C@@H]1O; assay: GlmS inhibition and Michaelis-Menten kinetics; assay type: biochemical, Escherichia coli
Method: as §2, §3, §4, §5

T1 sequence (P17169 2-609 A39T/R250C/G472S): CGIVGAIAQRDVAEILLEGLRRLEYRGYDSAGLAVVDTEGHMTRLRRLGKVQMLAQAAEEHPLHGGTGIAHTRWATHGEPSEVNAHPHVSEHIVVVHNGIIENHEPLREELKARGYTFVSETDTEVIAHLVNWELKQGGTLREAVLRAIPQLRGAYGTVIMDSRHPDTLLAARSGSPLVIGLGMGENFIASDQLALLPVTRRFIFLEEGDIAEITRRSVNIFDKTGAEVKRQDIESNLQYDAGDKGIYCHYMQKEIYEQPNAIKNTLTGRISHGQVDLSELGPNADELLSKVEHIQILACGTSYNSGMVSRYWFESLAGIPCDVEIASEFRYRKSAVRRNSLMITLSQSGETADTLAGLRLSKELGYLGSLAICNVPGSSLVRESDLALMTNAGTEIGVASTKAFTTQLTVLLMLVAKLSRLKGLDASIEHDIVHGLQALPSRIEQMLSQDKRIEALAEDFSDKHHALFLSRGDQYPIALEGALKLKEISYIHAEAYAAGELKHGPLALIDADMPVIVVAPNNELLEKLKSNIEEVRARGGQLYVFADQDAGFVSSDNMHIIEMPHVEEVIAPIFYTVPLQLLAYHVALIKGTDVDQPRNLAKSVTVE
Chain of E. coli glucosamine synthase GlmS*54, SEQ ID NO:6 (Ala39Thr, Arg250Cys, Gly472Ser) (P17169 whole entry A39T/R250C/G472S): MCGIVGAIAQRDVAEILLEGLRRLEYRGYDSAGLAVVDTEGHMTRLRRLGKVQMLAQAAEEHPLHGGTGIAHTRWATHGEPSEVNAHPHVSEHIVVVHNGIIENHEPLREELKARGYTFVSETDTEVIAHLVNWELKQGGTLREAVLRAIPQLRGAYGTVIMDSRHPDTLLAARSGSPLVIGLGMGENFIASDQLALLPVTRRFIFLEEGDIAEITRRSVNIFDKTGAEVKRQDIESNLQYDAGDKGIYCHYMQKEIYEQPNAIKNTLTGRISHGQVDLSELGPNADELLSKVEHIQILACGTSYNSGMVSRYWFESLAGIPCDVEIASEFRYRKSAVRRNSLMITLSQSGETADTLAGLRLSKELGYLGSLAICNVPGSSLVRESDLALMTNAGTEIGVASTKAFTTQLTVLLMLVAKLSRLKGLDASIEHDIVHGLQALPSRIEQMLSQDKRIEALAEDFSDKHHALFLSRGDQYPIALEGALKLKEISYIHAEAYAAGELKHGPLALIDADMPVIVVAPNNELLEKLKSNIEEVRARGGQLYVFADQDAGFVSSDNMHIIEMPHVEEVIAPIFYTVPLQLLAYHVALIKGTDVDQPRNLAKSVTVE
Chain of E. coli GlmS mutant GlmS*69 (P17169 whole entry, stated change not applied): as the sequence (P17169 whole entry A39T/R250C/G472S) above, with T39A, C250R, S472G counted along it
Chain of E. coli GlmS mutant GlmS*110 (P17169 whole entry, change not shown): as the sequence (P17169 whole entry A39T/R250C/G472S) above, with T39A, C250R, S472G counted along it

Molecule: CC(=O)N[C@H]1C(OP(=O)(O)O)O[C@H](CO)[C@@H](O)[C@@H]1O (stereo partly shown) [N-acetylglucosamine-1-P, N-acetylglucosamine-1-phosphate]
- activity at 10000 µM [1]: 100%

Molecule: N[C@H]1C(OP(=O)(O)O)O[C@H](CO)[C@@H](O)[C@@H]1O (stereo partly shown) [glucosamine-1-P, glucosamine-1-phosphate]
- activity at 10000 µM [1]: 79%
- inhibition of glucosamine synthetase (in words) [1]: inhibited

Molecule: N[C@H]1[C@@H](OP(=O)(O)O)O[C@H](CO)[C@@H](O)[C@@H]1O [glucosamine-1-P, glucosamine-1-phosphate]
- inhibition of glucosamine synthetase (in words) [2]: inhibited the enzyme at 10 mM

Molecule: N[C@H]1C(O)O[C@H](CO)[C@@H](O)[C@@H]1O (stereo partly shown) [glucosamine]
- viable count relative to original number ([3]; 40 g per liter, after 52 hrs): about one-fifth
- concentration at which toxicity was observed ([3]; pre-incubated in medium (pH 7.0) for 3.5 hrs prior to inoculation): 20000 µg/mL
- glucosamine degradation based on ammonia formation (in words) [4]: significantly higher with higher acid concentration
- stability of glucosamine (in words) ([5]; 0-42 g l-1 in cell-free M9A-glucose, pH 6.9, 30 C): unstable
- glucosamine breakdown with versus without 40 g l-1 glucose ([5]; 30 g l-1 glucosamine in M9A medium): No significant difference
- decline of pH in the medium ([5]; 42 g l-1 glucosamine, 24-hr period (6.9 to 6.2)): 0.7 units
- loss of glucosamine ([5]; pH 5.5): 18%
- loss of glucosamine ([5]; pH 7.0): 68%
- glucosamine degradation ([5]; starting 4 g l-1, pH 6.9, 30 C, about 24 hours): about 25%
- glucosamine degradation ([5]; starting 42 g l-1, pH 6.9, 30 C, less than a day): More than half
- glucosamine concentration after storage ([6]; filtered culture samples, -20 C, several weeks): no decrease in glucosamine concentration
- glucosamine concentration after storage ([6]; filtered samples, room temperature, overnight): did not result in any decrease in glucosamine concentration
- growth of freshly inoculated cultures ([7]; 10 and 20 g of glucosamine per liter, medium with 40 g l-1 glucose): slightly inhibited
- toxicity on strain 7107-18 ([7]; 20 g l-1 glucosamine pre-incubated in the medium (pH 7.0) for 3.5 hrs prior to inoculation): Toxicity was observed
- cell growth after inoculation into pre-incubated medium ([7]; 20 g l-1 glucosamine, medium incubated 10 hours before inoculation, pH 7.0 to 4.7): very poor
- cell growth without glucosamine pre-incubation ([7]; 20 g l-1 glucosamine, pH 7.0): good growth
- viable counts relative to inoculation levels ([7]; 35 g l-1 glucosamine): 10^5 fold less than inoculation levels
- cell growth, inoculated immediately ([7]; 35 g l-1 glucosamine in M9A-glucose (40 g l-1)): grew reasonably well
- cell survival in pre-incubated medium ([7]; 35 g l-1 glucosamine, medium pre-incubated as short as 3.5 hours): died rapidly
- viable count after 52 hrs ([7]; 40 g glucosamine per liter): about one-fifth the original number
- cell growth and survival ([7]; 40 g glucosamine per liter, killing after about 16 hours): prevented cell growth and began to kill the cells
- cell survival without medium pre-incubation ([7]; 50 g l-1 glucosamine): Cells died
- glucosamine degradation ([8]; 20 g/l, 1 N hydrochloric acid, 35, 60 or 100 C, 24 hours): No degradation was observed
- loss of glucosamine ([8]; 90 C, 12% and 16% hydrochloric acid, 90 minutes): No large loss of glucosamine was observed
- glucosamine stability with heating ([8]; pH 1.0 or lower, hydrochloric acid): stable
- glucosamine stability with heating ([8]; pH higher than 1.0): a significant amount of glucosamine was lost

Molecule: O=P(O)(O)OC[C@H]1OC(O)(CO)[C@@H](O)[C@@H]1O (stereo partly shown) [fructose-6-P, fructose-6-phosphate]
- Km [9]: 350 µM
- Km [10]: 410 µM

B1: E. coli GlmS mutant GlmS*124, SEQ ID NO:8 (Leu469Pro) (strain 2123-124) (Escherichia coli K-12; L469P) (protein)
chain: CGIVGAIAQRDVAEILLEGLRRLEYRGYDSAGLAVVDAEGHMTRLRRLGKVQMLAQAAEEHPLHGGTGIAHTRWATHGEPSEVNAHPHVSEHIVVVHNGIIENHEPLREELKARGYTFVSETDTEVIAHLVNWELKQGGTLREAVLRAIPQLRGAYGTVIMDSRHPDTLLAARSGSPLVIGLGMGENFIASDQLALLPVTRRFIFLEEGDIAEITRRSVNIFDKTGAEVKRQDIESNLQYDAGDKGIYRHYMQKEIYEQPNAIKNTLTGRISHGQVDLSELGPNADELLSKVEHIQILACGTSYNSGMVSRYWFESLAGIPCDVEIASEFRYRKSAVRRNSLMITLSQSGETADTLAGLRLSKELGYLGSLAICNVPGSSLVRESDLALMTNAGTEIGVASTKAFTTQLTVLLMLVAKLSRLKGLDASIEHDIVHGLQALPSRIEQMLSQDKRIEALAEDFSDKHHAPFLGRGDQYPIALEGALKLKEISYIHAEAYAAGELKHGPLALIDADMPVIVVAPNNELLEKLKSNIEEVRARGGQLYVFADQDAGFVSSDNMHIIEMPHVEEVIAPIFYTVPLQLLAYHVALIKGTDVDQPRNLAKSVTVE
notes: made in house; host or cells: E. coli strain 2123-124, cell extract
- Km [11]: 1100 µM

B2: E. coli GlmS mutant GlmS*72, SEQ ID NO:14 (Glu15Lys, Asp387Val, Ser450Pro, Glu525Gly) (strain 2123-72) (Escherichia coli K-12; D387V/E15K/E525G/S450P) (protein)
chain: B1 chain with E14K, D386V, S449P, P468L, E524G
notes: made in house; host or cells: E. coli strain 2123-72 (from 7101-17(DE3), plasmid with glmS*72 integrated), cell extract
- Km [11]: 950 µM
